Here are results for nine compounds from patent publication USRE37770E1, “Treatment of skin conditions by use of PPARα activators” (The Regents of the University of California, priority 1997, dated 2002).

Molecules are shown by their SMILES. pEC50: −log10 of the molar value.

Test [1] deals with full-thickness flank skin from the fetal rats. The test is described as follows: Transepidermal water loss (TEWL) of fetal rat skin explants in organ culture (barrier function). The format is cell-based, Sprague-Dawley rats. To be noted: for effect on TEWL / barrier function: 50 μM; for pEC50: Rattus norvegicus, read-out: concentration of half-maximal effect on barrier development (TEWL); for pEC50 / concentration of maximal effect on barrier development (TEWL): dose response, FIGS. 4a-4c. The procedure:
Timed pregnant Sprague-Dawley rats (plug date=day 0) were obtained from Simonsen (Gilroy, Calif., USA) and fetuses were delivered prematurely on day 17. Transepidermal water loss (TEWL) was measured in excised full-thickness flank skin from the fetal rats after various times in culture. The skin explants were placed dermis-side down onto collagen membrane inserts (3μ pore size) in medium M-199 (serum-free), and submerged, and the lateral edges and dermal surface were sealed with petrolatum, such that water loss occurred only through the epidermal surface. Explant samples were weighed hourly, at ambient temperature (24±3° C.) and humidity (40±5%), over 6 hours using a Cahn balance (sensitivity 0.001 mg). TEWL levels are reported as milligrams of water lost per square millimeter of epidermal surface per hour. Fatty acids and clofibrate (p-chlorophenoxyisobutyric acid) were added to the medium bound to 0.5% (weight/volume) bovine serum albumin (BSA). Isoprenoids and oxysterols were added in ethanol (≦0.1%) and juvenile hormone III was added as a dimethylsulfoxide (DMSO) solution (≦0.1%). Control explants were incubated in the presence of the appropriate vehicle (≦0.1% DMSO or ethanol, and/or ≦0.5% BSA). Skin explants from gestational day 17 rats were incubated in the presence of either various activators or vehicle, and transepidermal water loss was measured after two days. The activators and the concentrations at which they were used were as follows: […]

Test [2] concerns Skin explants from gestational day 17 rats. The test is described as follows: Light and electron microscopy of fetal rat skin explants (epidermal maturation). The format is cell-based. The note with it: 48 hours. As for the experimental part: Samples for light microscopy were fixed in modified Karnovsky's solution, plastic-embedded, and 0.5 μm sections were stained with toluidine. Samples for electron microscopy were minced into 1 mm^3 pieces, fixed in modified Karnovsky's fixative, and processed. Sections were stained with uranyl acetate and lead citrate, post-fixed in ruthenium tetroxide, and examined using a Zeiss 10A electron microscope.
Explants incubated in various media woe examined by light microscopy. The incubation di included control medium (containing no activators) and various media individually containing 300 μM clofibrate, 100 μM juvenile hormone III, 300 μM oleic acid, 30 μM linoleic acid, 50 μM farnesol, and various concentrations of 9-cis-retinoic acid, all-trans-retinoic acid, and 1,25-dihydroxy vitamin D3.
Observations were then made of the ultrastructural maturation of the outer epidermis in explants that had been incubated in the various media and then post-fixed in ruthenium tetroxide. Media identical to those of the preceding paragraph were used, excluding the retinoic acid-containing and 1,25-dihydroxy vitamin D3-containing media.

In test [3] the test system is involucrin mRNA. The test is described as follows: Involucrin mRNA in keratinocytes by Northern Blot. The note with it: low calcium (0.03 mM), 24 hours, 10 μM. The format is cell-based, Human. The procedure: (§1) Human keratinocyte cells were incubated in culture containing calcium at a concentration of 0.03 mM Ca^++ (a level that is too low to induce differentiation). Also included in the culture medium were clofibrate at 400 μM or ETYA at 10 μM and 20 μM, while separate cell cultures were maintained as controls with neither clofibrate nor ETYA. The production of mRNA for both involucrin and transglutaminase was measured at intervals over a 48-hour time period (0, 6, 12, 24, and 48 hours) by Northern Blot analysis. In each case, the lighter bars represent the control cells and the darker bars the cells incubated in the clofibrate-containing medium. The degree of mRNA generated is expressed as a percent of the control at zero hours.
(§2) Human epidermis was isolated from newborn foreskins and keratinocytes were plated in serum-free keratinocyte growth medium (“KGM”; Clonetics, San Diego, Calif. USA), using conventional techniques. Cells were treated with either the test compounds in vehicle or vehicle alone (<0.1% ethanol) for 24 or 48 hours. The test compounds were obtained from Sigma Chemical Co. (St. Louis. Mo. USA) and were stored as 15 mM stock solutions at −20° C. Mevalonate was solubilized in sterile water.
(§3) Total RNA was isolated by using TRIZOL (Sigma Chemical Co.), following the manufacturer's protocol. Ethanol-precipitate RNA pellets were suspended in sterile, diethylpyrocarbonate (DEPC)-treated water, and RNA was quantified by absorbance at 260 nm using the 260/280 nm ratio as an index of purity. RNA (15 μg per sample) was size fractionated through a 1% agarose gel containing 2.2 M formaldehyde. RNA integrity was visualized following acridine orange staining of the gel following electrophoresis. The RNA was transfered to a nylon membrane that was subsequently baked at 80° C. for 2 hours. Blots were hybridized with the appropriate ^32p-labeled probe overnight at 65° C. Washes were then performed in a solution containing 0.1% SSC and 0.1% sodium dedecyl sulfate (SDS) for 20 minutes at room temperature, followed by a 20-minute wash at 65° C. Autoradiography was performed at −70° C. Blots were probed with β-actin to confirm equal loading. Appropriate bands were quantified by densitometry.
(§4) Northern blot analyses were performed on keratinocytes maintained in low calcium (0.03 mM) and incubated for 24 hours in the presence of vehicle alone (<0.1% ethanol) or vehicle containing 25-hydroxycholesterol (10 μM), 22(R)-hydroxycholesterol (10 μM) cholesterol (10 μM), or mevalonate (500 μM) (individually). The mRNA levels of involucrin (“INV”) and transglutaminase (“TG'ase”) are shown in the bar graph of FIG. 14a, the INV indicated by clear bars and the TG'ase by shaded bars, both with error limits shown.

Test [4] relates to transglutaminase mRNA. The test is described as follows: Transglutaminase mRNA in keratinocytes by Northern Blot. To be noted: low calcium (0.03 mM), 24 hours, 10 μM. The test is classed as cell-based, Human. The procedure: as §1, §2, §3, §4
Test [5] concerns involucrin protein. The test is described as follows: Involucrin protein level in keratinocytes by Western Blot. The test is classed as cell-based, Human. To be noted: 0 to 15 μM, 0.03 mM Ca++, 24 hours. As for the experimental part: Measurements of the level of the involucrin protein itself were performed in the culture medium by Western Blot. Various incubations were performed, in media containing clofibrate at concentrations ranging from 0 (vehicle only) to 400 μM and calcium ion at both 0.03 mM and 1.2 mM. The results are shown in FIG. 9a for tests with calcium ion at 0.03 mM, and in FIG. 9b for tests with calcium ion at 1.2 mM. In these figures, the protein contents are expressed as percents of the respective measurements taken from media incubated for the same period of time but in the absence of clofibrate.
The procedures of Example 8 were followed, and measurements were taken on the involucrin protein levels from cells incubated at various concentrations of farnesol and juvenile hormone III ranging from 0 (vehicle only) to 15 μM, in media containing 0.03 mM and 1.2 mM calcium ion, for 24 hours. The results are shown in FIG. 10 for farnesol and FIG. 11 for juvenile hormone III, in 0.03 mM Ca^++.
Protein concentration was assessed by protein electrophoresis and Western blotting. Cells were lysed is 2% SDS and the lysate sonicated. Protein determinations were made by use of a Bicinchoninic add protein assay (Pierce Chemical Company, Rockford, Ill. USA). Following protein determination, equal amounts at protein (50 μg) were separated by electrophoresis an 7.5% polyacrylamide gels and electroblotted onto polyvinylidene […] membranes (0.2-μ, obtained from Bio-Rad Laboratories Hercules, Calif., USA). Involucrin protein was detected by incubation over-night at 4° C. C. with a polyclonal rabbit anti-human involucrin antibody (1:1000 dilution). The involucrin-specific bands on the autoradiograms were quantitated by densitometry by densitometry. Transglutaminase protein expression was measured in a similar mmaner, using stacking, sample and running buffers containing 4 M urea, and the gels following electrophoresis were washed in 4 M urea, 25 mM TRIS-HCl, pH 7.4, 7.5 mM NaCl, 0.1 mM dithiothreitol (DTT), and 2 mM ethylenediamine tetraacetic acid for 90 minutes prior to electoblotting, allowing the transglutaminase to be detected by antibody. Specific bands on the autoradiograms were quantified by densitometry.

Test [6] has as its system Normal human keratinocytes. The test is described as follows: Cornified envelope formation (35S incorporation) in keratinocytes. The test is classed as cell-based. To be noted: 10 μM, 0.03 mM calcium, 48-hour.

`CCCCC[C@H](O)/C=C/[C@H]1C(=O)C=C[C@@H]1C/C=C\CCCC(=O)O` [prostaglandin J2]: the “effect on TEWL / barrier development” value in test [1] (10 μM, two days) is listed as “had no effect”.

Regarding `CC(C)=CCC/C(C)=C/CC/C(C)=C/CC/C(C)=C/CO` [geranylgeraniol], the “effect on TEWL / barrier function” value in test [1] (two days) was “neither mevalonate at 200 μM, 25-hydroxy cholesterol at 50 μM), squalene at 50 μM, geranylgeraniol at 50 μM, cis-farnesol at 50 μM, nor nerolidol at 100 μM significantly affected barrier function”.

As to `CCCCC/C=C\C/C=C\CCCCCCCC(=O)O` [linoleic acid], in test [1], the pEC50 was roughly 4.90 and the “concentration of maximal effect on barrier development (TEWL)” value (shortened to “concentration of maximal effect”) is “approximately 30 μM”. The “effect on TEWL” value in test [1] (explants incubated in 300 μM for two days, p<0.005, n=8) was “markedly decreased the TEWL”. Further, in test [2] (30 μM), the “light microscopy of the epidermis” value is “had both a multi-layered stratum granulosum and a stratum corneum”.

For `C=CC(C)(O)CCC=C(C)CCC=C(C)C` (centres unmarked) [nerolidol], the “effect on TEWL / barrier formation” value in test [1] (100 μM, two days) was “neither mevalonate at 200 μM, 25-hydroxy cholesterol at 50 μM), squalene at 50 μM, geranylgeraniol at 50 μM, cis-farnesol at 50 μM, nor nerolidol at 100 μM significantly affected barrier function”.

For `CCCCCCCC/C=C\CCCCCCCC(=O)O` [oleic acid], in test [1], the pEC50 was roughly 3.60 and the “concentration of maximal effect” value is reported as “approximately 500 μM”. In addition, in test [2] (300 μM), the “light microscopy of the epidermis” value was “had both a multi-layered stratum granulosum and a stratum corneum”.

Turning to `CC(C)=CCC/C(C)=C/CC/C(C)=C/CC/C=C(\C)CC/C=C(\C)CCC=C(C)C` [squalene], the “effect on TEWL / barrier function” value in test [1] (two days) is reported as “neither mevalonate at 200 μM, 25-hydroxy cholesterol at 50 μM), squalene at 50 μM, geranylgeraniol at 50 μM, cis-farnesol at 50 μM, nor nerolidol at 100 μM significantly affected barrier function”.

For `CC(C)=CCC/C(C)=C\CC/C(C)=C\CO` [cis-farnesol], in test [1] (two days), the “effect on TEWL / barrier function” value is “neither mevalonate at 200 μM, 25-hydroxy cholesterol at 50 μM), squalene at 50 μM, geranylgeraniol at 50 μM, cis-farnesol at 50 μM, nor nerolidol at 100 μM significantly affected barrier function”.

For the compound `CC(C)CC[C@H](O)[C@@H](C)[C@H]1CC[C@H]2[C@@H]3CC=C4C[C@@H](O)CC[C@]4(C)[C@H]3CC[C@]12C` [22(S)-hydroxycholesterol], in test [3], the “involucrin (INV) mRNA level compared to the vehicle alone” value is “No effect”. Besides, the “transglutaminase (TG'ase) mRNA level compared to the vehicle alone” value in test [4] is “No effect”.

In the case of `CC(C)=CCC/C(C)=C/CC/C(C)=C/CO` [farnesol, 3,7,11,trimethyl-2,6,10-dodecatrienol], in test [1] (two days), the “effect on TEWL / barrier function” value was “markedly decreased the TEWL”. Besides, in test [1], the pEC50 is roughly 4.70 and the “concentration of maximal effect” value is recorded as “approximately 50 μM”. In addition, in test [2] (50 μM), the “light microscopy of the epidermis” value is “had both a multi-layered stratum granulosum and a stratum corneum”. Besides, the involucrin protein content result in test [5] is on record as “substantial increases in involucrin protein content”. The “rate of cornified envelope formation” value in test [6] is on record as “substantial increases in the rate of cornified envelope formation”.
